{
  "source": "patent US20250018048A1",
  "about": "“FLUCONAZOLE-COX INHIBITOR HYBRIDS: A DUAL-ACTING CLASS OF ANTIFUNGAL AZOLES” (Ramot at Tel-Aviv University Ltd., priority 2022, published 2025)",
  "format_in_all_cases": "cell-based",
  "key": {"C. albicans SN152": {"system": "C. albicans SN152", "experiment": "MIC80 broth double-dilution assay", "settings": "YPAD medium, 30° C., 24 h; parent strain of the erg11ΔΔ/erg3ΔΔ mutant", "experimental": "(§1) The antifungal activities of the 24 azole-COX inhibitor hybrids were evaluated against a panel of 16 representative strains of different species of the genus Candida. Candida species cause both superficial and systemic infections. The panel included strains of C. albicans, C. glabrata, C. parapsilosis, C. tropicalis, C. guilliermondii, C. dubliniensis, and C. auris (Table S2). To evaluate antifungal activity, the minimal inhibitory concentration 80% (MIC80) values were determined, which were defined as the lowest drug concentrations with turbidity (measured at OD600) less than or equal to that of specific 1:5 dilutions of the growth control. As controls, FLC and VOR, were tested.\n(§2) MIC80 values were determined using the broth microdilution method over a concentration range of 0.003-64 μg/mL. Orange circles represent C. albicans strains, yellow circles represent C. glabrata strains, and green circles represent C. parapsilosis, C. tropicalis, C. dubliniensis and C. auris. Cells were grown in YPAD medium at 30° C. (For C. auris strains 37° C.) 24 h. Each concentration was tested in triplicate, and results were confirmed in at least two independent experiments.\n(§3) The clinically used FLC and VOR act primarily by preventing ergosterol biosynthesis via inhibition of CYP51. Analysis was done to determine whether fungal growth inhibition by the hybrids required the presence of the ERG11 gene that encodes for CYP51. The antifungal activities of hybrids 1 and 5 and of FLC and VOR were determined against an erg11ΔΔ/erg3ΔΔ mutant C. albicans strain and against C. albicans SN152 from which this double knockout strain was derived (Table S2). […] Yeast growth was followed at OD600 over 48 h in 96-well plates containing serial double dilutions of the tested hybrids.\n(§4) C. albicans, C. glabrata, C. parapsilosis, C. guilliermondii, C. tropicalis, and C. dubliniensis MICs were determined using CLSI M27-A3 guidelines with minor modifications. Starter cultures were streaked from glycerol stock onto YPAD agar plates and grown for 24 h at 30° C. Colonies were suspended in 1 mL PBS and diluted to 1×10^−3 OD600 and then diluted 1:100 into fresh medium. Hybrids dissolved in DMSO were added to YPAD broth (32 μL stock solution in 1218 μL of YPAD broth), and serial double dilutions of hybrids in YPAD were prepared in flat-bottomed 96-well microplates (Corning) to enable testing of concentrations ranging from 64 μg/mL to 0.003 μg/mL. Control wells with yeast cells but no drug and blank wells containing only YPAD were prepared. An equal volume (100 μL) of yeast suspensions in YPAD broth was added to each well with the exceptions of the blank wells. MIC values (Tables S4-S6) were determined after 24 h at 30° C. by measuring the OD600 using a plate reader (Infinite M200 PRO, Tecan). MIC values were defined as the point at which the OD600 was reduced by >80% compared to the no-drug wells. Each concentration was tested in triplicate, and results were confirmed by two independent sets of experiments. FLC and VOR were used as control drugs."}, "[1]": {"system": "C. albicans 742 (erg11ΔΔ/erg3ΔΔ mutant C. albicans strain)", "experiment": "MIC80 broth double-dilution assay, strain lacking CYP51", "settings": "YPAD medium, 30° C., 24 h; erg11ΔΔ/erg3ΔΔ mutant lacking CYP51", "experimental": "as §1, §3, §4"}, "C. albicans ATCC 24433": {"system": "C. albicans ATCC 24433", "experiment": "MIC80 broth double-dilution assay", "settings": "YPAD medium, 30° C., 24 h", "experimental": "as §1, §2, §4"}, "C. albicans ATCC 90028": {"system": "C. albicans ATCC 90028", "experiment": "MIC80 broth double-dilution assay", "settings": "YPAD medium, 30° C., 24 h", "experimental": "as §1, §2, §4"}, "C. albicans P-87": {"system": "C. albicans P-87", "experiment": "MIC80 broth double-dilution assay", "settings": "YPAD medium, 30° C., 24 h", "experimental": "as §1, §2, §4"}, "C. albicans SC5314": {"system": "C. albicans SC5314", "experiment": "MIC80 broth double-dilution assay", "settings": "YPAD medium, 30° C., 24 h", "experimental": "as §1, §2, §4"}, "C. dubliniensis T-99": {"system": "C. dubliniensis T-99", "experiment": "MIC80 broth double-dilution assay", "settings": "YPAD medium, 30° C., 24 h", "experimental": "as §1, §2, §4"}, "[2]": {"system": "C. parapsilosis ATCC 22019", "experiment": "MIC80 broth double-dilution assay", "settings": "YPAD medium, 30° C., 24 h", "experimental": "as §1, §2, §4"}, "C. tropicalis 660": {"system": "C. tropicalis 660", "experiment": "MIC80 broth double-dilution assay", "settings": "YPAD medium, 30° C., 24 h", "experimental": "as §1, §2, §4"}, "C. guilliermondii T-47": {"system": "C. guilliermondii T-47", "experiment": "MIC80 broth double-dilution assay", "settings": "YPAD medium, 30° C., 24 h", "experimental": "as §1, §4"}, "C. auris ATCC MYA5001": {"system": "C. auris ATCC MYA5001", "experiment": "MIC broth double-dilution assay with MTT (CLSI M27-A3)", "settings": "YPAD medium, 37° C., 24 h, growth score 0 or 1", "experimental": "(§5) Minimal inhibitory concentration broth double-dilution assay: C. auris minimal inhibitory concentrations (MICs) were determined using CLSI M27-A3 guidelines with minor modifications. Starter cultures were streaked from glycerol stock onto YPAD agar plates and grown for 24 h at 37° C. Colonies were suspended in 1 mL PBS and diluted to 1×10^−3 optical density at 600 nm (OD600) and then diluted 1:100 into fresh medium. hybrids dissolved in DMSO were added to YPAD broth (32 μL stock solution in 1218 μL of YPAD broth), and serial double dilutions of hybrids in YPAD were prepared in flat-bottomed 96-well microplates (Corning) to enable testing of concentrations ranging from 64 μg/mL to 0.007 μg/mL. Control wells with yeast cells but no drug and blank wells containing only YPAD were prepared. An equal volume (100 μL) of yeast suspension in YPAD broth was added to each well with the exceptions of the blank wells. After incubation for 24 h at 37° C., MTT (50 μL of a 1 mg/mL solution in ddH2O) was added to each well followed by additional incubation at 37° C. for 2 h. MIC values (Table S3) were defined as the lowest concentration of an antifungal agent that caused a specified reduction in visible growth as per the CLSI M27-A3 protocol. The magnitude of reduction in visible growth was assessed using the following numerical scale: 0, optically clear; 1, slightly hazy; 2, prominent decrease (˜50%) in visible growth; 3, slight reduction in visible growth; and 4, no reduction in visible growth. The MIC was defined based on reduction in growth to 0 or 1. Results were confirmed in two independent experiments, and each concentration was tested in triplicate. FLC and VOR were used as control drugs."}, "C. auris ATCC MYA5002": {"system": "C. auris ATCC MYA5002", "experiment": "MIC broth double-dilution assay with MTT (CLSI M27-A3)", "settings": "YPAD medium, 37° C., 24 h, growth score 0 or 1", "experimental": "as §5"}, "[3]": {"system": "panel of 16 representative strains of different species of the genus Candida", "experiment": "Antifungal activity (MIC80) against a panel of Candida strains, comparison", "settings": "azole-susceptible strains", "experimental": "as §1, §2, §4"}},
  "data": [
    {"smiles": "CC(C)Cc1ccc([C@@H](C)C(=O)NC[C@](O)(Cn2cncn2)c2ccc(F)cc2F)cc1", "note": "[Hybrid 2]", "values": [
      {"measurement": "MIC80 against C. albicans SN152", "setting": "C. albicans SN152", "result": 0.007, "unit": "µg/mL"},
      {"measurement": "MIC80 against C. albicans 742", "setting": "[1]", "result": 64, "unit": "µg/mL"},
      {"measurement": "MIC80 against C. albicans 24433", "setting": "C. albicans ATCC 24433", "result": 0.015, "unit": "µg/mL"},
      {"measurement": "MIC80 against C. albicans 90028", "setting": "C. albicans ATCC 90028", "result": 0.007, "unit": "µg/mL"},
      {"measurement": "MIC80 against C. albicans P-87", "setting": "C. albicans P-87", "result": 0.007, "unit": "µg/mL"},
      {"measurement": "MIC80 against C. albicans SC5314", "setting": "C. albicans SC5314", "result": 0.007, "unit": "µg/mL"},
      {"measurement": "MIC80 against C. dubliniensis T-99", "setting": "C. dubliniensis T-99", "result": 0.12, "unit": "µg/mL"},
      {"measurement": "MIC80 against C. parapsilosis 22019", "setting": "[2]", "result": 0.015, "unit": "µg/mL"},
      {"measurement": "MIC80 against C. tropicalis 660", "setting": "C. tropicalis 660", "result": 0.5, "unit": "µg/mL"},
      {"measurement": "MIC80 against C. guilliermondii T-47", "setting": "C. guilliermondii T-47", "result": 0.06, "unit": "µg/mL"},
      {"measurement": "MIC against C. auris 5001", "setting": "C. auris ATCC MYA5001", "result": 0.06, "unit": "µg/mL"},
      {"measurement": "MIC against C. auris 5002", "setting": "C. auris ATCC MYA5002", "result": 1, "unit": "µg/mL"},
      {"measurement": "Antifungal potency (MIC80) in comparison with FLC, VOR or the corresponding stereoisomer", "setting": "[3]", "result": "lowest MIC80 values against all of the azole-susceptible strains"}
    ]},
    {"smiles": "CC(C)Cc1ccc([C@@H](C)C(=O)NC[C@@](O)(Cn2cncn2)c2ccc(F)cc2F)cc1", "note": "[Hybrid 3]", "values": [
      {"measurement": "MIC80 against C. albicans SN152", "setting": "C. albicans SN152", "result": 0.06, "unit": "µg/mL"},
      {"measurement": "MIC80 against C. albicans 742", "setting": "[1]", "result": 64, "unit": "µg/mL"},
      {"measurement": "MIC80 against C. albicans 24433", "setting": "C. albicans ATCC 24433", "result": 0.12, "unit": "µg/mL"},
      {"measurement": "MIC80 against C. albicans 90028", "setting": "C. albicans ATCC 90028", "result": 0.06, "unit": "µg/mL"},
      {"measurement": "MIC80 against C. albicans P-87", "setting": "C. albicans P-87", "result": 0.03, "unit": "µg/mL"},
      {"measurement": "MIC80 against C. albicans SC5314", "setting": "C. albicans SC5314", "result": 0.03, "unit": "µg/mL"},
      {"measurement": "MIC80 against C. dubliniensis T-99", "setting": "C. dubliniensis T-99", "result": 1, "unit": "µg/mL"},
      {"measurement": "MIC80 against C. parapsilosis 22019", "setting": "[2]", "result": 0.5, "unit": "µg/mL"},
      {"measurement": "MIC80 against C. tropicalis 660", "setting": "C. tropicalis 660", "result": 1, "unit": "µg/mL"},
      {"measurement": "MIC80 against C. guilliermondii T-47", "setting": "C. guilliermondii T-47", "result": 1, "unit": "µg/mL"},
      {"measurement": "Antifungal potency (MIC80) in comparison with FLC, VOR or the corresponding stereoisomer", "setting": "[3]", "result": "more potent than the corresponding S-configured ibuprofen hybrid 4"}
    ]}
  ]
}
